Test results taken from PubChem BioAssay AID1845198 (Molecular Pharmacology Branch, DTP, NCI, 2023).

Tested on: 425362-245-T-J1 tumor spheroids, viability % test/control
Test: Anticancer human tumor 425362-245-T-J1 patient-derived melanoma cell line growth inhibition
Details: spheroids with HUVEC and MSC; for IC50: curve of first compound; for viability, T/C: stronger effect = lower value
Description: Multicellular complex tumor spheroid response to DNA repair inhibitors in combination with DNA-damaging drugs
This study explores the anticancer activities of DNA-damaging drugs and inhibitors of DNA damage repair, both as single agents and in combinations. Complex tumor spheroids comprised of malignant cells, endothelial cells and mesenchymal stem cells served as an in vitro model for human solid tumors. This model system incorporates physiologically relevant features and patient-derived or established malignant cell lines with clinically relevant genetic alterations from many tumor types. Twenty-six patient-derived or established malignant cell lines were evaluated representing sarcoma, melanoma, small cell lung cancer (SCLC), non-small cell lung cancer (NSCLC), as well as bladder, ovarian and pancreatic cancers. The concentration ranges selected for each drug and investigational agent were based upon clinically achievable concentrations if the clinical Cmax of the agent was known.
Compounds. The drugs and compounds olaparib (NSC753686), talazoparib (NSC767125), berzosertib (NSC777718), elimusertib (NSC800525), nedisertib (NSC802822), VX-984 (NSC792969), AZD-1390 (NSC803789), temozolomide (NSC362856), topotecan (NSC609699), trabectedin (NSC813783), staurosporine (NSC755774), and gemcitabine (NSC613327) were obtained from the National Cancer Institute (NCI) Developmental Therapeutics Program Chemical Repository. The FDA-approved anticancer drug set is available from the Developmental Therapeutics Program at https://dtp.cancer.gov/organization/dscb/obtaining/available_plates.htm. […] The stock solutions were prepared in dimethyl sulfoxide (DMSO, Sigma-Aldrich, St. Louis, MO, cat. D2650) at 400-fold the tested concentration and stored at -70 degrees C. Prior to their use, the stock solutions were diluted in fresh medium and the final DMSO concentration in the assay was 0.25% (v/v). All drugs and investigational agents were tested over a range starting from a high concentration at or near the clinical Cmax and decreasing in half-log increments. If the clinical Cmax for an agent had not been determined, the highest concentration tested was 10 microM.
Cell Lines. The patient-derived cancer cell (PDC) lines: 156681-154-R-J1-PDC, 283228-195-R-J1-PDC, 287954-098-R-J1-PDC, 292921-168-R-J2-PDC, 349418-098-R-PDC, 425362-245-T-J1-PDC, 556581-035-R-J1-PDC, and BL0293-F563-PDC were received from the NCI Patient-Derived Models Repository (PDMR, https://pdmr.cancer.gov). The established cell lines HS-SY-2 (RRID:CVCL_8719), MPNST, and SYO-1 (RRID:CVCL_7146) were obtained from the Sloan Kettering Institute. The alveolar soft parts sarcoma cell line ASPS-1 (RRID:CVCL_S738) was established at the NCI and grown from internal seed stocks. The following established cell lines were purchased from the American Type Culture Collection (ATCC, Manassas, VA): G-401 (ATCC, cat. CRL-1441, RRID:CVCL_0270), SW982 (ATCC, cat. HTB-93, RRID:CVCL_1734), VA-ES-BJ (ATCC, cat. CRL-2138, RRID:CVCL_1785), NCI-H719 (ATCC, cat. CRL-5837, RRID:CVCL_1582), NCI-H196 (ATCC, cat. CRL-5823, RRID:CVCL_1509), NCI-H841 (ATCC, cat. CRL-5845, RRID:CVCL_1595), NCI-H1618 (ATCC, cat. CRL-5879, RRID:CVCL_1480), NCI-H1876 (ATCC, cat. CRL-5902, RRID:CVCL_1503), DMS 114 (ATCC, cat. CRL-2066; RRID:CVCL_1174), NCI-H211 (ATCC, cat. CRL-5824; RRID:CVCL_1529), and SW 1271 (ATCC, cat. CRL-2177, RRID:CVCL_1716). The small cell lung cancer cell line COR-L88 was purchased from Sigma-Aldrich (cat. 92031917-1VL, RRID:CVCL_1141). The non-small cell lung cancer cell lines NCI-H226 (RRID:CVCL_1544) and NCI-H322M (RRID:CVCL_1557) were established at the NCI and grown from internal seed stocks. Pooled donor human umbilical vein endothelial cells (HUVEC, Lonza, cat. CC-2519) and human mesenchymal stem cells (hMSC, Lonza, cat. PT-2501) were purchased from Lonza (Walkersville, MD).
Cell Culture. All cells were maintained in an incubator at 37 degrees C and 5% CO2 with 95% humidity. […]

[1] = second compound 0.003 µM, first compound 0.00949 µM
[2] = second compound 0.003 µM, first compound 0.03 µM
[3] = second compound 0.003 µM, first compound 0.0949 µM
[4] = second compound 0.003 µM, first compound 0.3 µM
[5] = second compound 0.003 µM, first compound 0.949 µM
[6] = second compound 0.003 µM, first compound 3 µM
[7] = second compound 0.00949 µM, first compound 0.00949 µM
[8] = second compound 0.00949 µM, first compound 0.03 µM
[9] = second compound 0.00949 µM, first compound 0.0949 µM
[10] = second compound 0.00949 µM, first compound 0.3 µM
[11] = second compound 0.00949 µM, first compound 0.949 µM
[12] = second compound 0.00949 µM, first compound 3 µM
[13] = second compound 0.03 µM, first compound 0.00949 µM
[14] = second compound 0.03 µM, first compound 0.03 µM
[15] = second compound 0.03 µM, first compound 0.0949 µM
[16] = second compound 0.03 µM, first compound 0.3 µM
[17] = second compound 0.03 µM, first compound 0.949 µM
[18] = second compound 0.03 µM, first compound 3 µM
[19] = second compound 0.0949 µM, first compound 0.00949 µM
[20] = second compound 0.0949 µM, first compound 0.03 µM
[21] = second compound 0.0949 µM, first compound 0.0949 µM
[22] = second compound 0.0949 µM, first compound 0.3 µM
[23] = second compound 0.0949 µM, first compound 0.949 µM
[24] = second compound 0.0949 µM, first compound 3 µM
[25] = second compound 0.3 µM, first compound 0.00949 µM
[26] = second compound 0.3 µM, first compound 0.03 µM
[27] = second compound 0.3 µM, first compound 0.0949 µM
[28] = second compound 0.3 µM, first compound 0.3 µM
[29] = second compound 0.3 µM, first compound 0.949 µM
[30] = second compound 0.3 µM, first compound 3 µM
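Also: spheroids exposed to agents for 7 days.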
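For viability, T/C in this document: 100% = DMSO vehicle control viability.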

SMILES	IC50 (second compound 0.003 µM) [nM]	IC50 (second compound 0.00949 µM) [nM]	IC50 (second compound 0.03 µM) [nM]	IC50 (second compound 0.0949 µM) [nM]	IC50 (second compound 0.3 µM) [nM]	viability, T/C [3] [%]	viability, T/C [4] [%]	viability, T/C [5] [%]	viability, T/C [6] [%]	viability, T/C [9] [%]	viability, T/C [10] [%]	viability, T/C [11] [%]	viability, T/C [12] [%]	viability, T/C [15] [%]	viability, T/C [16] [%]	viability, T/C [17] [%]	viability, T/C [18] [%]	viability, T/C [21] [%]	viability, T/C [22] [%]	viability, T/C [23] [%]	also measured
CNCc1ccc(-c2cc(-c3nc(-c4ccc(S(=O)(=O)C(C)C)cc4)cnc3N)on2)cc1 + CC[C@@]1(O)C(=O)OCc2c1cc1n(c2=O)Cc2cc3c(CN(C)C)c(O)ccc3nc2-1	55	47.5	< 9.49	< 9.49	< 9.49	32.7	5.49	2.14	0.22	17.6	4.43	2.33	0.18	10.4	2.7	1.35	0.15	2.64	2.59	1.05	viability, T/C [1]: 75.8%; viability, T/C [2]: 69.4%; viability, T/C [7]: 70%; viability, T/C [8]: 73%; viability, T/C [13]: 33.9%; viability, T/C [14]: 17.8%; viability, T/C [19]: 4.36%; viability, T/C [20]: 4.83%; viability, T/C [24]: 0.21%; viability, T/C [25]: 1.97%; viability, T/C [26]: 1.87%; viability, T/C [27]: 1.95%; viability, T/C [28]: 1.64%; viability, T/C [29]: 1.08%; viability, T/C [30]: 0.28%
Cn1ncnc1[C@H]1c2n[nH]c(=O)c3cc(F)cc(c23)N[C@@H]1c1ccc(F)cc1 + CC[C@@]1(O)C(=O)OCc2c1cc1n(c2=O)Cc2cc3c(CN(C)C)c(O)ccc3nc2-1	< 9.49	< 9.49	< 9.49	< 9.49	< 9.49	17.6	11.1	5.98	2.38	9.54	9.4	6.02	3.27	7.89	6.48	3.96	2.32	3.86	3.16	2.57	viability, T/C [1]: 47.8%; viability, T/C [2]: 30.3%; viability, T/C [7]: 28.2%; viability, T/C [8]: 13.9%; viability, T/C [13]: 8.39%; viability, T/C [14]: 8.16%; viability, T/C [19]: 4.28%; viability, T/C [20]: 3.95%; viability, T/C [24]: 1.79%; viability, T/C [25]: 2.13%; viability, T/C [26]: 1.9%; viability, T/C [27]: 1.79%; viability, T/C [28]: 1.71%; viability, T/C [29]: 1.43%; viability, T/C [30]: 1.33%
O=C(c1cc(Cc2n[nH]c(=O)c3ccccc23)ccc1F)N1CCN(C(=O)C2CC2)CC1 + CC[C@@]1(O)C(=O)OCc2c1cc1n(c2=O)Cc2cc3c(CN(C)C)c(O)ccc3nc2-1	3170	650	< 94.9	< 94.9	< 94.9	87	84.8	80.6	52.4	71.3	55	46.6	34.8	7.79	10.1	8.82	6.98	4.29	4.4	5.46	viability, T/C (second compound 0.003 µM, first compound 9.49 µM): 7.82%; viability, T/C (second compound 0.003 µM, first compound 30 µM): 9.12%; viability, T/C (second compound 0.00949 µM, first compound 9.49 µM): 9.52%; viability, T/C (second compound 0.00949 µM, first compound 30 µM): 8.51%; viability, T/C (second compound 0.03 µM, first compound 9.49 µM): 6.48%; viability, T/C (second compound 0.03 µM, first compound 30 µM): 5.12%; viability, T/C [24]: 4.39%; viability, T/C (second compound 0.0949 µM, first compound 9.49 µM): 3.36%; viability, T/C (second compound 0.0949 µM, first compound 30 µM): 3.93%; viability, T/C [27]: 2.55%; viability, T/C [28]: 1.67%; viability, T/C [29]: 1.76%; viability, T/C [30]: 1.64%; viability, T/C (second compound 0.3 µM, first compound 9.49 µM): 1.57%; viability, T/C (second compound 0.3 µM, first compound 30 µM): 1.68%
